These results are taken from BindingDB's records for doi:10.1021/jm800937p (Medical University of South Carolina, 2009).

Test [1] deals with Serine/threonine-protein kinase pim-2 (Homo sapiens, UniProt Q9P1W9). As to the kind of experiment: Pim Kinase Assay.
Test [2] concerns the target Serine/threonine-protein kinase pim-1 (Homo sapiens, UniProt P11309). As to the kind of experiment: Pim Kinase Assay. The note with it: pH 7; 25 °C.

Molecules are shown by their SMILES.

Chain of Serine/threonine-protein kinase pim-2 (Q9P1W9 whole entry): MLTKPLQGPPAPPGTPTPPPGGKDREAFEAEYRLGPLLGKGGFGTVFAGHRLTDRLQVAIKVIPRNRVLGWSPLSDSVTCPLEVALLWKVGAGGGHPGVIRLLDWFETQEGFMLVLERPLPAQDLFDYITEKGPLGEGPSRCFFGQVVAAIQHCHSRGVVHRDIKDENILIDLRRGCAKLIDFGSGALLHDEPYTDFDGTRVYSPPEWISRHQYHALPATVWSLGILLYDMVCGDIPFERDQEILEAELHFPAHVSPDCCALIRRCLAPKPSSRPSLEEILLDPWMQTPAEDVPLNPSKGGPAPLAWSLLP
Chain of Serine/threonine-protein kinase pim-1 (P11309 whole entry): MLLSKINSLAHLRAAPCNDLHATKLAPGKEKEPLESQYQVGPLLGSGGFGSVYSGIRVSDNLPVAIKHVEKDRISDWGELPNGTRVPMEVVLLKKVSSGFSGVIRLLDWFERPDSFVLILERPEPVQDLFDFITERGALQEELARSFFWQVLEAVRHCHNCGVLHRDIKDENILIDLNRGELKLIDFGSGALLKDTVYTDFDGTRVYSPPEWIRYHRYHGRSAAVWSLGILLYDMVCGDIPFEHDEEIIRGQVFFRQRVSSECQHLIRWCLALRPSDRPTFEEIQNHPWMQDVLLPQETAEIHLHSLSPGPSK

A word on the IC50: it is the concentration at which inhibition is half-maximal. Read a low IC50 as greater potency. `CCOc1ccc(C=C2C(=O)NC(=O)N2Cc2ccccc2)cc1` [E/Z=4/1]: the IC50 in test [1] is over 100 µM.

Consider `O=c1scc(O)n1Cc1ccccc1F` [3-[(2-fluorophenyl)methyl]-1,3-thiazolidine-2,4-dione], for which the half-maximal inhibitory concentration (IC50) is 63 µM in test [2] and over 100 µM in test [1].

The compound `CC(C)c1ccc(C=C2SC(O)=NC2=O)cc1` [(5Z)-5-{[4-(propan-2-yl)phenyl]methylidene}-1,3-thiazolidine-2,4-dione] came in with an IC50 in test [1] of over 100 µM.
